# Results: US5420335A, “Parenteral nutrients based on watersoluble glycerol bisacetoacetates” (priority 1993, dated 1995)
# Assays:
# [1] = in words; cited from earlier work
# [2] = Overall evaluation as a parenteral nutrient; format: in vivo, rat (male Sprague-Dawley); details: in words
# Description: Water was available ad libitum at all times.
# The vein was then ligated dorsally to the catheter. […] Body weights were measured daily.
# Infusate volume, oral food intake, body weight and urinary volume and total nitrogen were monitored daily for each rat. Infusate volume and food intake were determined by weighing the appropriate container at the start and end of each 24 hr. period. Measurements were recorded between 9 and 10 AM each day. At the end of the 7th day, rats were sacrificed, and blood and liver were harvested. Plasma was separated for measurement of free fatty acids, glucose, and ketone bodies. Liver was weighed and a sample was fixed in buffered formalin for gross histology.
# The data were analyzed for significance by the one-way analysis of variance with repeated measures and comparing the effect of dietary treatment on each day. […] The null hypothesis was concluded invalid if p≤0.05. The analysis of variance was computed on a SAS statistical package.
molecule,measurement,setting,value
"CC(=O)CC(=O)OCC1COC(C)(C)O1 (stereo not shown) [1,2-isopropylideneglyceryl 3-acetoacetate]",enhance the absorption of certain agents in the intestine,[1],enhance the absorption of certain agents in the intestine
"CC(=O)CC(=O)OCC(O)COC(=O)CC(C)=O [1,3-bisacetoacetylglycerol]",enhance the absorption of certain agents in the intestine,[1],enhance the absorption of certain agents in the intestine
"CC(=O)OCC1COC(C)(C)O1 (stereo not shown) [2,3-isopropylidene-1-acetate]",enhance the absorption of certain agents in the intestine,[1],enhance the absorption of certain agents in the intestine
Partially Reduced Pentaacetoacetyl-glucose [Compound 3],efficacy as parenteral nutrient / energy source,[2],ineffective as parenteral nutrients
